In assay [1] the target is IMP-1 (Serratia marcescens, UniProt P52699). Briefly: Enzyme activity: determination of IC50, fluorescence assay with CCF2-FA substrate. The class given is biochemical. Conditions: IMP-1 enzyme 2 pM, CCF2-FA 1.25 μM, 2 hours at 25° C.; read-out: IMP1 IC50. A digest of the protocol: (§1)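 Final enzyme levels differed by target: 1 pM NDM-1, 2 pM IMP-1, 30 pM VIM-1. Each was incubated 2 hours at 25° C with test compound and 1.25 μM CCF2-FA, and 460 nm fluorescence (405 nm excitation) was fitted by 4-parameter curve to obtain IC50.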
IMP-1, sequence (P52699 19-246, looked up, species assumed): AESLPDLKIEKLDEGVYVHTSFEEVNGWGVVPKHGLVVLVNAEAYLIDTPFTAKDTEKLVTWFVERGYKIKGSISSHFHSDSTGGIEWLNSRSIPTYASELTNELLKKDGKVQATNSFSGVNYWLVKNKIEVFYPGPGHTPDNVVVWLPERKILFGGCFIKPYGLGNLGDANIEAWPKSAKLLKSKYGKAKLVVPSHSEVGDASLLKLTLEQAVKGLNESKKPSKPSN

In assay [2] the target is NDM-1 (Klebsiella pneumoniae, UniProt C7C422). The description is as above. The class given is biochemical. Conditions: NDM-1 enzyme 1 pM, CCF2-FA 1.25 μM, 2 hours at 25° C.; read-out: NDM1 IC50. In a few lines:
as §1

Assay [3] deals with VIM-1 (Pseudomonas aeruginosa, UniProt A0A0F7KYQ8). The assay is described as above. Format: biochemical. As to conditions: VIM-1 enzyme 30 pM, CCF2-FA 1.25 μM, 2 hours at 25° C.; read-out: VIM1 IC50. In a few lines: as §1
For assay [4], the system named is Escherichia coli expressing NDM-1 (CLB30016). Put plainly: Antibiotic potentiation activity: synergistic concentration (MITC95) with imipenem, growth by OD600. Format: cell-based. As to conditions: E. coli CLB30016 (NDM-1), 95% inhibition of growth. In a few lines:
(§2)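 Colonies from overnight agar plates (35 °C) were suspended in saline and diluted 1:100 into 1.1× CAMHB. Inhibitor (final 200 μM to 0.195 μM) was combined with imipenem at 1 or 4 μg/ml, incubated 22–24 h at 35 °C, and absorbance read; MITC95 is the lowest inhibitor concentration giving 95% growth inhibition.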

The subject of assay [5] is Klebsiella pneumoniae expressing VIM-1 (IHMA599644). The description is as above. The class given is cell-based. Conditions: K. pneumoniae IHMA599644 (VIM-1), 95% inhibition of growth. A digest of the protocol: as §2
The test system of assay [6] is Serratia marcescens expressing IMP-1 (CL5741). Described as above. The class given is cell-based. As to conditions: S. marcescens CL5741 (IMP-1), 95% inhibition of growth. A digest of the protocol: as §2

NDM-1, sequence (C7C422 29-270, looked up, species assumed): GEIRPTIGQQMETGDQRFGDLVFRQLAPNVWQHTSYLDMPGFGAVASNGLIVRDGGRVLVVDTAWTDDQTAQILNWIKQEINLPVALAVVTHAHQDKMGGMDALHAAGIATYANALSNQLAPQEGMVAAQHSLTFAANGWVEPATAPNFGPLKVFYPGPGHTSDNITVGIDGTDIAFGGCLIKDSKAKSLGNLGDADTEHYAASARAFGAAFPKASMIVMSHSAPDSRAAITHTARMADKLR

Broadly, the IC50 is the concentration that inhibits the measured activity by half. As for `CCC[C@H](C(=O)[O-])[C@H](Cc1ccc(C2=CC[N+](C)(C)CC2)cc1)c1nnn[nH]1` [Example 295, (S)-2-((S)-2-(4-(1,1-dimethyl-1,2,3,6-tetrahydropyridin-1-ium-4-yl)phenyl)-1-(1H-tetrazol-5-yl)ethyl)pentanoate], the results for the IC50 in assay [1], in assay [2] and in assay [3] were 1100 nM, 440 nM and 1600 nM, respectively. In assay [4], the “NDM1 EC30016 MITC95” value came to 12.5 µM. Also, in assay [5], the “VIM1 KP599644 MITC95” value was 25 µM. The “IMP1 SM5741 MITC95” value in assay [6] worked out at 12.5 µM.

For the compound `CCC[C@H](C(=O)O)[C@H](Cc1ccc(C2CCN(C(=N)N)CC2)cc1)c1nnn[nH]1` [Example 296, (S)-2-((S)-2-(4-(1-carbamimidoylpiperidin-4-yl)phenyl)-1-(1H-tetrazol-5-yl)ethyl)pentanoic acid], the IC50 came to 180 nM in assay [1], 32 nM in assay [2] and 21 nM in assay [3]. In assay [4], the “NDM1 EC30016 MITC95” value worked out at 4.7 µM. For the same compound, the “VIM1 KP599644 MITC95” value in assay [5] was 12.5 µM. For the same compound, in assay [6], the “IMP1 SM5741 MITC95” value came to 6.2 µM.

`CCC[C@H](C(=O)O)[C@H](Cc1ccc(C2CCN(C=N)CC2)cc1)c1nnn[nH]1` [Example 297, (S)-2-((S)-2-(4-(1-(iminomethyl)piperidin-4-yl)phenyl)-1-(1H-tetrazol-5-yl)ethyl)pentanoic acid]: the IC50 in assay [1] amounted to 200 nM; in assay [2], 26 nM; in assay [3], 25 nM. In addition, in assay [4], the “NDM1 EC30016 MITC95” value worked out at 4.7 µM. In addition, the “VIM1 KP599644 MITC95” value in assay [5] was 18.8 µM. Also, the “IMP1 SM5741 MITC95” value in assay [6] amounted to 6.2 µM.

Turning to `CCC[C@H](C(=O)O)[C@H](Cc1ccc(C2CCN(C(=N)N)CC2)nc1)c1nnn[nH]1` [Example 298, (S)-2-((S)-2-(6-(1-carbamimidoylpiperidin-4-yl)pyridin-3-yl)-1-(1H-tetrazol-5-yl)ethyl)pentanoic acid], the values for the IC50 in assay [1], in assay [2] and in assay [3] were 2700 nM, 110 nM and 10 nM, respectively. Besides, in assay [4], the “NDM1 EC30016 MITC95” value was determined as 1.6 µM. In addition, in assay [5], the “VIM1 KP599644 MITC95” value came out at 12.5 µM. Further, in assay [6], the “IMP1 SM5741 MITC95” value stood at 25 µM.

Regarding `CCC[C@H](C(=O)O)[C@H](Cc1ccc(C2CCN(C=N)CC2)nc1)c1nnn[nH]1` [Example 299, (S)-2-((S)-2-(6-(1-(iminomethyl)piperidin-4-yl)pyridin-3-yl)-1-(1H-tetrazol-5-yl)ethyl)pentanoic acid], the half-maximal inhibitory concentration (IC50) in assay [1] was determined as 4400 nM; in assay [2] it was 220 nM; in assay [3] it was 22 nM. In addition, the “NDM1 EC30016 MITC95” value in assay [4] is 1.6 µM. Further, in assay [5], the “VIM1 KP599644 MITC95” value was found to be 25 µM. Further, the “IMP1 SM5741 MITC95” value in assay [6] worked out at 50 µM.

Turning to `CCC[C@H](C(=O)O)[C@H](Cc1ccc(C2CCN(C)CC2)cc1)c1nn[nH]n1` [Example 300, (2S)-2-[(1S)-2-[4-(1-methylpiperidin-4-yl)phenyl]-1-(2H-tetrazol-5-yl)ethyl]pentanoic acid], the figures for the IC50 in assay [1], in assay [2] and in assay [3] were 2100 nM, 550 nM and 140 nM, respectively. Besides, the “NDM1 EC30016 MITC95” value in assay [4] was determined as 50 µM. For the same compound, in assay [5], the “VIM1 KP599644 MITC95” value was found to be 100 µM. Further, the “IMP1 SM5741 MITC95” value in assay [6] was determined as 25 µM.

Consider `CCC[C@H](C(=O)O)[C@H](Cc1ccc(-c2ccc(CC3CCNCC3)cc2)cc1)c1nn[nH]n1` [Example 301, (2S)-2-[(1S)-2-[4′-(piperidin-4-ylmethyl)biphenyl-4-yl]-1-(2H-tetrazol-5-yl)ethyl]pentanoic acid], for which the IC50 in assay [1] was 68 nM; in assay [2] it was 43 nM; in assay [3] it was 31 nM. In addition, the “NDM1 EC30016 MITC95” value in assay [4] is 12.5 µM. Also, the “VIM1 KP599644 MITC95” value in assay [5] stood at 100 µM. In addition, the “IMP1 SM5741 MITC95” value in assay [6] was found to be 2.3 µM.

With `CCC[C@H](C(=O)O)[C@H](Cc1ccc(C2=CCCNC2)cc1)c1nn[nH]n1` [Example 302, (2S)-2-[(1S)-2-[4-(1,2,5,6-tetrahydropyridin-3-yl)phenyl]-1-(2H-tetrazol-5-yl)ethyl]pentanoic acid], the IC50 in assay [1] came out at 3100 nM; in assay [2] it was 980 nM; in assay [3] it was 18 nM. In assay [4], the “NDM1 EC30016 MITC95” value amounted to 38 µM. In addition, in assay [5], the “VIM1 KP599644 MITC95” value worked out at 50 µM. The “IMP1 SM5741 MITC95” value in assay [6] turned out to be 50 µM.

Regarding `CC(C)C[C@H](C(=O)O)[C@H](Cc1ccc(N2CCCC2c2ccccc2)nc1)c1nnn[nH]1` (stereo partly drawn) [Example 303, (2S)-4-methyl-2-[(1S)-2-[6-(2-phenylpyrrolidin-1-yl)pyridin-3-yl]-1-(1H-tetrazol-5-yl)ethyl]pentanoic acid], the IC50 in assay [1] amounted to 96 nM; in assay [2], 14 nM; in assay [3] it was 3.9 nM. The “NDM1 EC30016 MITC95” value in assay [4] was 18.8 µM. Also, the “VIM1 KP599644 MITC95” value in assay [5] came to 200 µM. Also, the “IMP1 SM5741 MITC95” value in assay [6] is 4.7 µM.

For the compound `CC(C)C[C@H](C(=O)O)[C@H](Cc1ccc(N2CCCC2)nc1)c1nnn[nH]1` [Example 304, (2S)-4-methyl-2-[(1S)-2-(6-pyrrolidin-1-ylpyridin-3-yl)-1-(1H-tetrazol-5-yl)ethyl]pentanoic acid], the IC50 worked out at 1300 nM in assay [1], 170 nM in assay [2] and 7.8 nM in assay [3]. Besides, the “NDM1 EC30016 MITC95” value in assay [4] was determined as 4.7 µM. In addition, in assay [5], the “VIM1 KP599644 MITC95” value stood at 18.8 µM. Besides, the “IMP1 SM5741 MITC95” value in assay [6] turned out to be 38 µM.

As to `CNC(=O)C1CCN(c2ccc(C[C@H](c3nnn[nH]3)[C@H](CC(C)C)C(=O)O)cn2)C1` (stereo partly drawn) [Example 305, (2S)-4-methyl-2-[(1S)-2-{6-[3-(methylcarbamoyl)pyrrolidin-1-yl]pyridin-3-yl}-1-(1H-tetrazol-5-yl)ethyl]pentanoic acid], the IC50 is 250 nM in assay [1], 120 nM in assay [2] and 12 nM in assay [3]. Also, the “NDM1 EC30016 MITC95” value in assay [4] came to 2.3 µM. Moreover, the “VIM1 KP599644 MITC95” value in assay [5] turned out to be 25 µM. The “IMP1 SM5741 MITC95” value in assay [6] turned out to be 6.2 µM.

With `CC(C)C[C@H](C(=O)O)[C@H](Cc1ccc(N2CCC(CN)C2)nc1)c1nnn[nH]1` (stereo partly drawn) [Example 306, (2S)-2-[(1S)-2-{6-[3-(aminomethyl)pyrrolidin-1-yl]pyridin-3-yl}-1-(1H-tetrazol-5-yl)ethyl]-4-methylpentanoic acid], the IC50 was 2700 nM in assay [1], 670 nM in assay [2] and 13 nM in assay [3]. In addition, the “NDM1 EC30016 MITC95” value in assay [4] was 3.1 µM. For the same compound, the “VIM1 KP599644 MITC95” value in assay [5] worked out at 12.5 µM. Besides, the “IMP1 SM5741 MITC95” value in assay [6] turned out to be 25 µM.

As to `CC(C)C[C@H](C(=O)O)[C@H](Cc1ccc(N2CCC(CN)CC2)nc1)c1nnn[nH]1` [Example 307, (2S)-2-[(1S)-2-{6-[4-(aminomethyl)piperidin-1-yl]pyridin-3-yl}-1-(1H-tetrazol-5-yl)ethyl]-4-methylpentanoic acid], the IC50 was 390 nM in assay [1], 120 nM in assay [2] and 24 nM in assay [3]. For the same compound, in assay [4], the “NDM1 EC30016 MITC95” value was 4.7 µM. Also, the “VIM1 KP599644 MITC95” value in assay [5] was found to be 25 µM. The “IMP1 SM5741 MITC95” value in assay [6] came to 6.2 µM.

Regarding `CC(C)C[C@H](C(=O)O)[C@H](Cc1ccc(N2CCC3(CC2)CNC3)nc1)c1nnn[nH]1` [Example 308, (2S)-2-[(1S)-2-[6-(2,7-diazaspiro[3.5]non-7-yl)pyridin-3-yl]-1-(1H-tetrazol-5-yl)ethyl]-4-methylpentanoic acid], the 50% inhibitory concentration (IC50) came to 370 nM in assay [1], 120 nM in assay [2] and 32 nM in assay [3]. In addition, the “NDM1 EC30016 MITC95” value in assay [4] was found to be 3.1 µM. Further, the “VIM1 KP599644 MITC95” value in assay [5] is 25 µM. For the same compound, in assay [6], the “IMP1 SM5741 MITC95” value worked out at 9.4 µM.

On to `CC(C)C[C@H](C(=O)O)[C@H](Cc1ccc(N2CCCC(CO)C2)nc1)c1nnn[nH]1` (stereo partly drawn) [Example 309, (2S)-2-[(1S)-2-{6-[3-(hydroxymethyl)piperidin-1-yl]pyridin-3-yl}-1-(1H-tetrazol-5-yl)ethyl]-4-methylpentanoic acid], for which the values for the 50% inhibitory concentration (IC50) in assay [1], in assay [2] and in assay [3] were 150 nM, 62 nM and 24 nM, respectively. Also, in assay [4], the “NDM1 EC30016 MITC95” value amounted to 6.2 µM. The “VIM1 KP599644 MITC95” value in assay [5] came out at 75 µM. Moreover, in assay [6], the “IMP1 SM5741 MITC95” value is 6.2 µM.

On to `CC(C)C[C@H](C(=O)O)[C@H](Cc1ccc(N2CCC(N)C2)nc1)c1nnn[nH]1` (stereo partly drawn) [Example 310, (2S)-2-[(1S)-2-[6-(3-aminopyrrolidin-1-yl)pyridin-3-yl]-1-(1H-tetrazol-5-yl)ethyl]-4-methylpentanoic acid], for which the values for the IC50 in assay [1], in assay [2] and in assay [3] were 1800 nM, 430 nM and 4.6 nM, respectively. For the same compound, the “NDM1 EC30016 MITC95” value in assay [4] worked out at 4.7 µM. The “VIM1 KP599644 MITC95” value in assay [5] stood at 12.5 µM. Also, the “IMP1 SM5741 MITC95” value in assay [6] amounted to 25 µM.
